Test results from the supplement of paper PMC10627819.

How the values were obtained:
[1] = system: B. subtilis 168; assay: fitness (endpoint OD595 vs no drug) (fraction); higher = more growth
In short: (§1)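 Fitness compares growth at the stationary-phase transition with the robust mean of no-drug control wells, as a ratio of optical densities. The ratio is capped at 1. Wells of 384-well plates held 30 µl, or 55 µl for S. pneumoniae, inoculated at OD595 0.01. Readings at OD595 every 30 min for 14 h at 37 °C were corrected against the first reading.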

[2] = system: S. aureus DSM 20231; assay: as above
In short: as §1

[3] = system: S. aureus Newman; assay: as above
In short: as §1

[4] = system: S. pneumoniae D39V; assay: as above
In short: as §1

[5] = system: B. subtilis 168; assay: Bliss interaction score (quartile over a dose matrix) (fitness difference); higher = more antagonism (negative = synergy)
In short: (§2)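 The Bliss score takes observed fitness and subtracts the expected fitness, calculated as a product of single-drug fitness values. Those single-drug values were inferred from the combination data. Fitness is OD595 at entry into stationary phase divided by the plate's robust no-drug mean, capped at 1, and the score is summarised by quartiles across technical, biological and donor/recipient replicates.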

[6] = system: S. aureus DSM 20231; assay: as above
In short: as §2

[7] = system: S. aureus Newman; assay: as above
In short: as §2

[8] = system: S. pneumoniae D39V; assay: as above
In short: as §2
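For Bliss interaction score (quartile over a dose matrix) in this document: first quartile when negative (synergy) and third quartile when positive (antagonism).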
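For fitness (endpoint OD595 vs no drug) in this document: OD595 on entry to stationary phase over no-drug wells; at most 1.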

O=C(O[C@@H]1Cc2c(O)cc(O)cc2O[C@@H]1c1cc(O)c(O)c(O)c1)c1cc(O)c(O)c(O)c1 [EGCG] + Cc1onc(-c2ccccc2)c1C(=O)N[C@@H]1C(=O)N2[C@@H]1SC(C)(C)[C@@H]2C(=O)O [Oxacillin]
fitness
Details	first compound 6.25 µg/mL	first compound 12.5 µg/mL	first compound 25 µg/mL	first compound 50 µg/mL
[1], partner 0.002 µg/mL	0.935	–	0.202	–
[1], partner 0.004 µg/mL	0.924	0.538	0.205	–
[1], partner 0.008 µg/mL	0.898	0.525	0.186	–
[2], partner 0.0156 µg/mL	–	0.645	0.582	0.62
[2], partner 0.0312 µg/mL	–	0.498	0.548	–
[2], partner 0.0625 µg/mL	–	0.442	0.393	0.34
[3], partner 0.0156 µg/mL	–	0.591	0.605	–
[3], partner 0.0312 µg/mL	–	0.624	0.681	–
[3], partner 0.0625 µg/mL	–	0.59	0.636	–
[4], partner 0.005 µg/mL	–	0.989	0.973	≥ 1
[4], partner 0.01 µg/mL	–	0.924	0.903	0.966
[4], partner 0.02 µg/mL	–	0.929	0.947	0.923
[4], partner 0.04 µg/mL	–	0.474	0.576	0.632

fitness, [1], one replicate
Details	partner 0.0078 µg/mL	partner 0.0155 µg/mL	partner 0.031 µg/mL	partner 0.075 µg/mL	partner 0.15 µg/mL	partner 0.3 µg/mL
first compound 6.25 µg/mL	0.998	0.978	0.972	0.515	0.0556	0.0544
first compound 12.5 µg/mL	0.858	0.852	0.792	0.444	0.0247	0.0417
first compound 25 µg/mL	0.602	0.559	0.434	0.139	0.0233	0.024

Details	Bliss interaction score
[5]	-0.0648
[6]	-0.0707
[7]	0.0991
[8]	0.0942

CCC[C@@H]1C[C@@H](C(=O)N[C@@H]([C@H]2O[C@H](SC)[C@H](O)[C@@H](O)[C@H]2O)[C@H](C)Cl)N(C)C1 [Clindamycin] + O=C(O[C@@H]1Cc2c(O)cc(O)cc2O[C@@H]1c1cc(O)c(O)c(O)c1)c1cc(O)c(O)c(O)c1 [EGCG]
fitness, [1], one replicate
Details	first compound 0.0039 µg/mL	first compound 0.0078 µg/mL	first compound 0.0156 µg/mL
partner 6.25 µg/mL	0.986	0.862	0.85
partner 12.5 µg/mL	0.511	0.402	0.383
partner 25 µg/mL	0.401	0.362	0.374

fitness
Details	partner 6.25 µg/mL	partner 12.5 µg/mL	partner 25 µg/mL	partner 50 µg/mL
[1], first compound 0.25 µg/mL	0.356	0.337	0.119	–
[2], first compound 0.0312 µg/mL	–	0.485	0.49	0.416
[2], first compound 0.0625 µg/mL	–	–	0.172	0.115
[2], first compound 0.125 µg/mL	–	0.0823	0.0417	0.0383
[3], first compound 0.0312 µg/mL	–	0.603	0.587	0.598
[3], first compound 0.125 µg/mL	–	–	0.0771	0.046
[4], first compound 0.0125 µg/mL	–	0.703	0.686	0.605
[4], first compound 0.015 µg/mL	–	0.734	0.661	0.538
[4], first compound 0.025 µg/mL	–	0.466	0.405	0.392
[4], first compound 0.03 µg/mL	–	0.466	0.414	0.3
[4], first compound 0.05 µg/mL	–	0.173	0.168	0.178
[4], first compound 0.06 µg/mL	–	0.312	0.315	0.22

Details	Bliss interaction score
[5]	0.136
[6]	0.0371
[7]	-0.0691
[8]	-0.108

COc1c(N2C[C@@H]3CCCN[C@@H]3C2)c(F)cc2c(=O)c(C(=O)O)cn(C3CC3)c12 [Moxifloxacin] + Cc1cc(NS(=O)(=O)c2ccc(N)cc2)no1 [Sulfamethoxazol]
one replicate
Details	fitness
[1], first compound 0.0312 µg/mL, partner 0.5 µg/mL	0.0261
[1], first compound 0.0625 µg/mL, partner 0.5 µg/mL	0.034
[1], first compound 0.125 µg/mL, partner 0.5 µg/mL	0.0283
[2], first compound 0.06 µg/mL, partner 1 µg/mL	0.669
[2], first compound 0.06 µg/mL, partner 2 µg/mL	0.655
[2], first compound 0.06 µg/mL, partner 4 µg/mL	0.655
[2], first compound 0.12 µg/mL, partner 1 µg/mL	0.445
[2], first compound 0.12 µg/mL, partner 2 µg/mL	0.44
[2], first compound 0.12 µg/mL, partner 4 µg/mL	0.431
[3], first compound 0.0075 µg/mL, partner 8 µg/mL	0.934
[3], first compound 0.015 µg/mL, partner 8 µg/mL	0.887
[3], first compound 0.03 µg/mL, partner 8 µg/mL	0.784
[4], first compound 0.0037 µg/mL, partner 1 µg/mL	0.897
[4], first compound 0.0037 µg/mL, partner 2 µg/mL	0.856
[4], first compound 0.0037 µg/mL, partner 4 µg/mL	0.797
[4], first compound 0.0075 µg/mL, partner 1 µg/mL	0.869
[4], first compound 0.0075 µg/mL, partner 2 µg/mL	0.857
[4], first compound 0.0075 µg/mL, partner 4 µg/mL	0.797
[4], first compound 0.015 µg/mL, partner 1 µg/mL	0.842
[4], first compound 0.015 µg/mL, partner 2 µg/mL	0.828
[4], first compound 0.015 µg/mL, partner 4 µg/mL	0.79

fitness
Details	partner 1 µg/mL	partner 2 µg/mL	partner 4 µg/mL
[1], first compound 0.0312 µg/mL	0.0226	0.0442	0.0303
[1], first compound 0.0625 µg/mL	0.0292	0.0328	0.0239
[1], first compound 0.125 µg/mL	0.0176	0.0212	0.0185
[1], first compound 2 µg/mL	0.0112	0.0253	0.0113
[1], first compound 4 µg/mL	0.0152	0.0241	0.0125
[1], first compound 8 µg/mL	0.0212	0.0227	0.0093
[2], first compound 0.0075 µg/mL	0.78	0.829	0.765
[2], first compound 0.015 µg/mL	0.69	0.724	0.76
[2], first compound 0.03 µg/mL	0.586	0.682	0.692
[3], first compound 0.0075 µg/mL	0.776	0.795	0.749
[4], first compound 0.005 µg/mL	0.944	0.969	0.958
[4], first compound 0.01 µg/mL	0.949	0.955	0.987
[4], first compound 0.02 µg/mL	0.894	0.912	0.926

Details	Bliss interaction score
[5]	-0.0331
[6]	-0.0783
[7]	-0.071
[8]	-0.0536

CCC[C@@H]1C[C@@H](C(=O)N[C@@H]([C@H]2O[C@H](SC)[C@H](O)[C@@H](O)[C@H]2O)[C@H](C)Cl)N(C)C1 [Clindamycin] + Cc1cc(NS(=O)(=O)c2ccc(N)cc2)no1 [Sulfamethoxazol]
one replicate
Details	fitness
[1], first compound 0.0039 µg/mL, partner 1 µg/mL	≥ 1
[1], first compound 0.0039 µg/mL, partner 2 µg/mL	≥ 1
[1], first compound 0.0039 µg/mL, partner 4 µg/mL	≥ 1
[1], first compound 0.0078 µg/mL, partner 1 µg/mL	0.884
[1], first compound 0.0078 µg/mL, partner 2 µg/mL	0.853
[1], first compound 0.0078 µg/mL, partner 4 µg/mL	0.868
[1], first compound 0.0156 µg/mL, partner 1 µg/mL	0.866
[1], first compound 0.0156 µg/mL, partner 2 µg/mL	0.981
[1], first compound 0.0156 µg/mL, partner 4 µg/mL	0.907
[1], first compound 0.0625 µg/mL, partner 0.5 µg/mL	0.666
[1], first compound 0.125 µg/mL, partner 0.5 µg/mL	0.466
[1], first compound 0.25 µg/mL, partner 0.5 µg/mL	0.363
[3], first compound 0.0312 µg/mL, partner 8 µg/mL	0.896
[3], first compound 0.0625 µg/mL, partner 8 µg/mL	0.934
[3], first compound 0.125 µg/mL, partner 8 µg/mL	0.709
[4], first compound 0.015 µg/mL, partner 1 µg/mL	0.873
[4], first compound 0.015 µg/mL, partner 2 µg/mL	0.914
[4], first compound 0.015 µg/mL, partner 4 µg/mL	0.812
[4], first compound 0.03 µg/mL, partner 1 µg/mL	0.783
[4], first compound 0.03 µg/mL, partner 2 µg/mL	0.777
[4], first compound 0.03 µg/mL, partner 4 µg/mL	0.717
[4], first compound 0.06 µg/mL, partner 1 µg/mL	0.64
[4], first compound 0.06 µg/mL, partner 2 µg/mL	0.69
[4], first compound 0.06 µg/mL, partner 4 µg/mL	0.621

fitness
Details	partner 1 µg/mL	partner 2 µg/mL	partner 4 µg/mL
[1], first compound 0.0625 µg/mL	0.571	0.544	0.579
[1], first compound 0.125 µg/mL	0.422	0.395	0.431
[1], first compound 0.25 µg/mL	0.33	0.321	0.332
[2], first compound 0.0625 µg/mL	0.0971	0.0985	0.0862
[2], first compound 0.125 µg/mL	0.0349	0.0282	0.0345
[3], first compound 0.0312 µg/mL	0.757	–	–
[3], first compound 0.125 µg/mL	0.149	–	–
[4], first compound 0.0125 µg/mL	0.687	0.711	0.739
[4], first compound 0.025 µg/mL	0.462	0.443	0.45
[4], first compound 0.05 µg/mL	0.206	0.191	0.219

Details	Bliss interaction score
[5]	-0.0677
[6]	-0.0287
[7]	0.0865
[8]	-0.0442
